# Results taken from US20180051132A1, “ELASTOMER COUPLED WITH BIOACTIVE FATTY ACID” (University of Pittsburgh - Of the Commonwealth System of …, priority 2016, published 2018).
# Tested on: sheep vascular endothelial cell (SVEC)
# Experiment: SVEC proliferation/cytotoxicity, CellTiterBlue assay
# Type: cell-based
# Conditions: without growth factors
# Protocol: The cell media used was the EGM-2 Bullet Kit (CC-3162) from Lonza. It consists of 500 mL of basal media, antibiotics GA-1000 (Gentamicin, Amphotecerin-B), FBS (Fetal Bovine Serum) 10 mL, and a kit of growth factors (VEGF, hFGF-B, R3-IGF-1, Ascorbic Acid, Heparin). • In vitro viability assay:Live/dead assay • In vitro cytotoxicity(biocompatibility)/proliferation assay: CellTiterBlue® assay • This in vitro test was to find the optimal linoleic acid content in the material. Cells were cultured in different concentration of LA. […]
# The fluorescence of live cells were measured at three time points:1, 3, 5 days. […] Fluorescence was recorded triple times for each well at 560 nm/590 nm excitation/emission.
smiles,measurement,setting,value
"CCCCC/C=C\C/C=C\CCCCCCCC(=O)O [LA, linoleic acid]",SVEC proliferation,36 nM LA,higher proliferation than the cells in the positive control medium
same,SVEC proliferation,360 nM LA,higher proliferation than the cells in the positive control medium
